From patent US8673942B2, “Fused ring compounds and use thereof” (Takeda Pharmaceutical Company Limited, priority 2008, dated 2014)
pEC50: −log10 of the molar value.

Key:
[1] = biological target: T1, human liver GK (GST-hLGK1) (Homo sapiens, UniProt P35557); assay: Measurement of GK activation value; assay type: biochemical; conditions: GST-hLGK1 6 μg/mL, 5 mmol/L D-glucose, 50 μmol/L Mant-ATP, 60 min at 37° C.; concentration at midpoint between maximum activity value and control activity value
T1 construct: with a BamHI site added to immediately before the initiation codon; made in house; host or cells: Escherichia coli BL21 (Stratagene), plasmid pGEX6P-2/hLGK1
T1 sequence (P35557 1-464 isoform P35557-3): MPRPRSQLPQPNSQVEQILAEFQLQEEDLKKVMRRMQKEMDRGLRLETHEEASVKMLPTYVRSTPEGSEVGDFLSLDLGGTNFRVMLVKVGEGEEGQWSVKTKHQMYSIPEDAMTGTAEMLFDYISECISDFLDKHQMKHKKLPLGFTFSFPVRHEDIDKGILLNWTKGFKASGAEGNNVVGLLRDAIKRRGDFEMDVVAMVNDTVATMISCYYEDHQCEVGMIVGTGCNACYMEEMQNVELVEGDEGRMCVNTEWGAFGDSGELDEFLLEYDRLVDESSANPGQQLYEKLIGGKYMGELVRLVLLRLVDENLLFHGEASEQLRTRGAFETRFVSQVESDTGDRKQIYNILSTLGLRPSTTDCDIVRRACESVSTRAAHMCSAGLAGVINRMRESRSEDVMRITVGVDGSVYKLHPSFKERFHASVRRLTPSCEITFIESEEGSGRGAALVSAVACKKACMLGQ
Procedure: GK enzyme reactions were performed in 50 mmol/L HEPES pH 7.4, 200 mmol/L KCl, 5 mmol/L MgCl2, 2 mmol/L DTT, containing 50 μmol/L 2′-(or -3′)-O—(N-methylanthraniloyl)adenosine 5′-triphosphate (Mant-ATP) (Jena Bioscience GmbH), 5 mmol/L D-glucose, 5% DMSO and 6 μg/mL GST-hLGK1 obtained in Reference Example 2A in a total volume 50 μL. The reactions were performed in 384 well black plates (Nalge Nunc International K.K.). Prior to the reaction, the enzyme and test compound were incubated for 10 min at 37° C., and 25 mM D-glucose solution (10 μL) was added to start the reaction.
After the incubation for 60 min at 37° C., the reaction was quenched by adding 25 μL of a quenching solution (containing 200 mM HEPES (pH 7.4), 20 mM MgCl2, 200 mM EDTA, 0.03% Triton-X 100, 0.3% Coating 3 reagent (Caliper Life Sciences, Inc.)).
Mant-ATP (substrate, 2′- (or -3′)-O—(N-methylanthraniloyl) adenosine 5′-triphosphate) and Mant-ADP (reaction resultant product) were separated from each well after the reaction by a microchip type capillary electrophoresis apparatus 250 HTS (Caliper Life Sciences, Inc.). The reaction rate [(reaction resultant product peak height)/(reaction resultant product peak height+substrate peak height)×100(%)] was calculated from the ratio of the substrate peak height and reaction resultant product peak height obtained by fluorescence detection (excitation wavelength 355 nm, measurement wavelength 460 nm) and used as the index of GK activity.
As a control group, the reaction rate was calculated in the same manner as above without the test compounds.
The percentage obtained by dividing the reaction rate of the well added with each concentration of the test compound (test compound addition group) by the reaction rate of the control group was taken as the GK activity value, and the concentration of the test compound at the midpoint between the maximum activity value of the test compound addition group and the control group activity value is shown as EC50 value.

| pEC50 [1] | melting point | SMILES |
| --- | --- | --- |
| 7.55 | 196 to 197 °C | CNC(=O)CC1CN=C(c2cc3cc(Oc4ccc(S(C)(=O)=O)nc4)cc(OC)c3[nH]2)S1 (single isomer, unassigned) [Example 31, 2-[2-(7-Methoxy-5-{[6-(methylsulfonyl)pyridin-3-yl]oxy}-1H-indol-2-yl)-4,5-dihydro-1,3-thiazol-5-yl]-N-methylacetamide] |
| 7.77 |  | COCC(C)Oc1cc(Oc2ccc(S(C)(=O)=O)cc2)cc2cc(C3=NCC(CCO)S3)[nH]c12 (single isomer, unassigned) [Example 57, 2-(2-{7-(2-Methoxy-1-methylethoxy)-5-[4-(methylsulfonyl)phenoxy]-1H-indol-2-yl}-4,5-dihydro-1,3-thiazol-5-yl)ethanol] |
| 7.82 |  | COCC(C)Oc1cc(Oc2ccc(S(C)(=O)=O)cc2)cc2cc(C3=NCC(CCO)S3)[nH]c12 (single isomer, unassigned) [Example 58, 2-(2-{7-(2-Methoxy-1-methylethoxy)-5-[4-(methylsulfonyl)phenoxy]-1H-indol-2-yl}-4,5-dihydro-1,3-thiazol-5-yl)ethanol] |
| 7.23 |  | CC(C)Oc1cc(Oc2ccc(S(C)(=O)=O)cn2)cc2cc(C3=NCC(CC(C)(C)O)S3)[nH]c12 (single isomer, unassigned) [Example 65, 2-Methyl-1-{2-[7-(1-methylethoxy)-5-{[5-(methylsulfonyl)pyridin-2-yl]oxy}-1H-indol-2-yl]-4,5-dihydro-1,3-thiazol-5-yl}propan-2-ol] |
| 7.55 | 173 to 174 °C | COc1cc(Oc2ccc(S(C)(=O)=O)nc2)cc2cc(C3=NCC(CC(=O)NCC(C)(C)O)S3)[nH]c12 (single isomer, unassigned) [Example 74] |
| 7.70 |  | CCOc1cc(Oc2ccc(S(C)(=O)=O)nc2)cc2cc(C3=NCC(CC(=O)NC)S3)[nH]c12 (single isomer, unassigned) [Example 98, 2-[2-(7-Ethoxy-5-{[6-(methylsulfonyl)pyridin-3-yl]oxy}-1H-indol-2-yl)-4,5-dihydro-1,3-thiazol-5-yl]-N-methylacetamide] |
| 7.26 | 218 to 219 °C | CS(=O)(=O)c1ccc(Oc2cc(OCc3ccccc3)c3[nH]c(C4=NCC(CC(=O)O)S4)cc3c2)cc1 (stereo not drawn) [Example 3, (2-{7-(Benzyloxy)-5-[4-(methylsulfonyl)phenoxy]-1H-indol-2-yl}-4,5-dihydro-1,3-thiazol-5-yl)acetic acid] |
| 7.38 | 175 to 176 °C | CS(=O)(=O)c1ccc(Oc2cc(OCc3cccc(Cl)n3)c3[nH]c(C4=NCC(CC(=O)O)S4)cc3c2)cc1 (stereo not drawn) [Example 7, (2-{7-[(6-Chloropyridin-2-yl)methoxy]-5-[4-(methylsulfonyl)phenoxy]-1H-indol-2-yl}-4,5-dihydro-1,3-thiazol-5-yl)acetic acid] |
| 7.28 | 130 to 131 °C | Cn1ccnc1COc1cc(Oc2ccc(S(C)(=O)=O)cc2)cc2cc(C3=NCC(CC(N)=O)S3)[nH]c12 (stereo not drawn) [Example 11, 2-(2-{7-[(1-Methyl-1H-imidazol-2-yl)methoxy]-5-[4-(methylsulfonyl)phenoxy]-1H-indol-2-yl}-4,5-dihydro-1,3-thiazol-5-yl)acetamide] |
| 7.48 | 165 to 169 °C | CC(CO)Oc1cc(Oc2ccc(S(C)(=O)=O)cc2)cc2cc(C3=NCC(CCO)S3)[nH]c12 (stereo not drawn) [Example 16, 2-({2-[5-(2-Hydroxyethyl)-4,5-dihydro-1,3-thiazol-2-yl]-5-[4-(methylsulfonyl)phenoxy]-1H-indole-7-yl}oxy)propan-1-ol] |
| 7.32 | 137 to 142 °C | CC(CO)Oc1cc(Oc2ccc(S(C)(=O)=O)cc2)cc2cc(C3=NCC(CC(N)=O)S3)[nH]c12 (stereo not drawn) [Example 17, 2-(2-{7-(2-Hydroxy-1-methylethoxy)-5-[4-(methylsulfonyl)phenoxy]-1H-indol-2-yl}-4,5-dihydro-1,3-thiazol-5-yl)acetamide] |
|  | 107 to 109 °C | CNC(=O)CC1CN=C(c2cc3cc(Oc4ccc(S(C)(=O)=O)nc4)cc(OC(C)COC)c3[nH]2)S1 (stereo not drawn) [Example 87, 2-{2-[7-(2-Methoxy-1-methylethoxy)-5-{[6-(methylsulfonyl)pyridin-3-yl]oxy}-1H-indol-2-yl]-4,5-dihydro-1,3-thiazol-5-yl}-N-methylacetamide] |
|  | 109 to 112 °C | COCC(C)Oc1cc(Oc2ccc(S(C)(=O)=O)cc2)cc2cc(C3=NCC(C(OC)OC)S3)[nH]c12 (stereo not drawn) [Example 88, 2-[5-(Dimethoxymethyl)-4,5-dihydro-1,3-thiazol-2-yl]-7-(2-methoxy-1-methylethoxy)-5-[4-(methylsulfonyl)phenoxy]-1H-indole] |
|  | 160 to 161 °C | COCCOc1c(F)c(Oc2ccc(S(C)(=O)=O)nc2)cc2cc(C3=NCC(CCO)S3)[nH]c12 (stereo not drawn) [Example 90, 2-{2-[6-Fluoro-7-(2-methoxyethoxy)-5-{[6-(methylsulfonyl)pyridin-3-yl]oxy}-1H-indol-2-yl]-4,5-dihydro-1,3-thiazol-5-yl}ethanol] |
|  | 151 to 152 °C | CNC(=O)CC1CN=C(c2cc3cc(Oc4ccc(S(C)(=O)=O)nc4)c(F)c(OCCOC)c3[nH]2)S1 (stereo not drawn) [Example 92, 2-{2-[6-Fluoro-7-(2-methoxyethoxy)-5-{[6-(methylsulfonyl)pyridin-3-yl]oxy}-1H-indol-2-yl]-4,5-dihydro-1,3-thiazol-5-yl}-N-methylacetamide] |
|  | 143 to 144 °C | COCCOc1c(F)c(Oc2ccc(S(C)(=O)=O)nc2)cc2cc(C3=NCC(CC(N)=O)S3)[nH]c12 (stereo not drawn) [Example 93, 2-{2-[6-Fluoro-7-(2-methoxyethoxy)-5-{[6-(methylsulfonyl)pyridin-3-yl]oxy}-1H-indol-2-yl]-4,5-dihydro-1,3-thiazol-5-yl}acetamide] |
|  | 147 to 148 °C | CCOc1cc(Oc2ccc(S(C)(=O)=O)nc2)cc2cc(C3=NCC(CCO)S3)[nH]c12 (stereo not drawn) [Example 95, 2-[2-(7-Ethoxy-5-{[6-(methylsulfonyl)pyridin-3-yl]oxy}-1H-indol-2-yl)-4,5-dihydro-1,3-thiazol-5-yl]ethanol] |
|  | 208 to 210 °C | CCOc1cc(Oc2ccc(S(C)(=O)=O)nc2)cc2cc(C3=NCC(CC(=O)O)S3)[nH]c12 (stereo not drawn) [Example 96, [2-(7-Ethoxy-5-{[6-(methylsulfonyl)pyridin-3-yl]oxy}-1H-indol-2-yl)-4,5-dihydro-1,3-thiazol-5-yl]acetic acid] |
|  | 233 to 235 °C | CCOc1cc(Oc2ccc(S(C)(=O)=O)nc2)cc2cc(C3=NCC(CC(=O)NC)S3)[nH]c12 (stereo not drawn) [Example 97, 2-[2-(7-Ethoxy-5-{[6-(methylsulfonyl)pyridin-3-yl]oxy}-1H-indol-2-yl)-4,5-dihydro-1,3-thiazol-5-yl]-N-methylacetamide] |
|  | 195 to 196 °C | CCOc1cc(Oc2ccc(S(C)(=O)=O)nc2)cc2cc(C3=NCC(CC(N)=O)S3)[nH]c12 (stereo not drawn) [Example 100, 2-[2-(7-Ethoxy-5-{[6-(methylsulfonyl)pyridin-3-yl]oxy}-1H-indol-2-yl)-4,5-dihydro-1,3-thiazol-5-yl]acetamide] |
|  | 144 to 145 °C | COc1cc(Oc2ccc(S(C)(=O)=O)cc2)cc2cc(C3=NCC(CC(=O)O)S3)[nH]c12 (stereo not drawn) [Example 102, (2-{7-Methoxy-5-[4-(methylsulfonyl)phenoxy]-1H-indol-2-yl}-4,5-dihydro-1,3-thiazol-5-yl)acetic acid] |
|  | 125 to 126 °C | CNC(=O)CC1CN=C(c2cc3cc(Oc4ccc(S(C)(=O)=O)cc4)cc(OC)c3[nH]2)S1 (stereo not drawn) [Example 103, 2-(2-{7-Methoxy-5-[4-(methylsulfonyl)phenoxy]-1H-indol-2-yl}-4,5-dihydro-1,3-thiazol-5-yl)-N-methylacetamide] |
|  | 169 to 170 °C | COc1cc(Oc2ccc(S(C)(=O)=O)cc2)cc2cc(C3=NCC(CC(N)=O)S3)[nH]c12 (stereo not drawn) [Example 104, 2-(2-{7-Methoxy-5-[4-(methylsulfonyl)phenoxy]-1H-indol-2-yl}-4,5-dihydro-1,3-thiazol-5-yl)acetamide] |
